± gives the standard deviation of the averaged measurements.
How the values were obtained:
Assay in all cases: level (log10 ratio to DMSO vehicle control); higher = higher biomarker level / cell amount than vehicle control
[1] = compound: C=CC(F)(F)C(F)(F)C(F)(F)C(F)(F)C(F)(F)C(F)(F)C(F)(F)C(F)(F)C=C [1,8-Divinylperfluorooctane]; conditions: in DMSO
Experimental: (§1)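 BioMAP Diversity Plus panel of 12 human primary cell co-culture systems (3C, 4H, LPS, SAg, BT, BF4T, BE3C, CASM3C, HDF3CGF, KF3CT, MyoF, Mphg). Compounds were added 1 h before stimulation and left for 24 h (MyoF 48 h; BT 72 h for soluble read-outs or 6 d for IgG). Biomarkers were read by ELISA, cytotoxicity by SRB, PBMC viability and proliferation by Alamar Blue. Each well value was divided by the mean of 8 DMSO control wells on the same plate and log10 transformed; duplicate blinded samples were tested at 4 concentrations.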

[2] = compound: FC(F)(F)C(F)(C(F)(F)F)C(F)(F)C(F)(F)CC1CO1 [3-(Perfluoro-3-methylbutyl)-1,2-propenoxide]; conditions: in DMSO
Experimental: as §1

[3] = compound: FC(F)C(F)(F)COCC1CO1 [((2,2,3,3-Tetrafluoropropoxy)methyl)oxirane]; conditions: in DMSO
Experimental: as §1

[4] = compound: O=C(O)C(F)(F)C(F)(F)C(F)F [4H-Perfluorobutanoic acid]; conditions: in DMSO
Experimental: as §1

[5] = compound: O=C(O)C(F)(F)C(F)(F)OC(F)(F)F [Perfluoro-3-methoxypropanoic acid]; conditions: in DMSO
Experimental: as §1

[6] = compound: OCCC(F)(F)C(F)(F)C(F)(F)C(F)(F)C(F)(F)C(F)(F)F [6:2 Fluorotelomer alcohol]; conditions: in DMSO
Experimental: as §1

[7] = compound: OCCCC(F)(F)C(F)(F)C(F)(F)C(F)(F)C(F)(F)C(F)(F)C(F)(F)F [7:3 Fluorotelomer alcohol]; conditions: 6700 nM; in DMSO
Experimental: as §1

## 3C:CD141/Thrombomodulin
[1]; 6700 nM
  level (log10): -0.0215 ± 0.022
[1]; 20000 nM
  level (log10): -0.0055 ± 0.023
[2]; 6700 nM
  level (log10): -0.001 ± 0.017
[2]; 20000 nM
  level (log10): -0.0245 ± 0.018
[3]; 6700 nM
  level (log10): -0.007 ± 0.0085
[3]; 20000 nM
  level (log10): -0.0185 ± 0.049
[3]; 60000 nM
  level (log10): -0.0145 ± 0.039
[4]; 6700 nM
  level (log10): -0.0285 ± 0.0078
[4]; 20000 nM
  level (log10): -0.008 ± 0.013
[4]; 60000 nM
  level (log10): 0.0035 ± 0.0035
[5]; 6700 nM
  level (log10): 0.0005 ± 0.087
[5]; 20000 nM
  level (log10): -0.0245 ± 0.036
[5]; 60000 nM
  level (log10): -0.0215 ± 0.023
[6]; 6700 nM
  level (log10): -0.019 ± 0.037
[6]; 20000 nM
  level (log10): -0.0445 ± 0.021
[7]
  level (log10): -0.032

## lMphg:sIL-10
[1]; 6700 nM
  level (log10): -0.053 ± 0.085
[1]; 20000 nM
  level (log10): -0.0135 ± 0.03
[2]; 6700 nM
  level (log10): -0.005 ± 0.028
[2]; 20000 nM
  level (log10): -0.04 ± 0.013
[3]; 6700 nM
  level (log10): -0.087 ± 0.024
[3]; 20000 nM
  level (log10): -0.043 ± 0.027
[3]; 60000 nM
  level (log10): 0.0075 ± 0.018
[4]; 6700 nM
  level (log10): -0.0495 ± 0.096
[4]; 20000 nM
  level (log10): -0.0605 ± 0.054
[4]; 60000 nM
  level (log10): -0.019 ± 0.0014
[5]; 6700 nM
  level (log10): -0.0385 ± 0.013
[5]; 20000 nM
  level (log10): -0.064 ± 0.024
[5]; 60000 nM
  level (log10): -0.0485 ± 0.044
[6]; 6700 nM
  level (log10): -0.032 ± 0.02
[6]; 20000 nM
  level (log10): -0.143 ± 0.041
[7]
  level (log10): -0.0345 ± 0.032

## HDF3CGF:CCL2/MCP-1
[1]; 6700 nM
  level (log10): -0.022 ± 0.0042
[1]; 20000 nM
  level (log10): -0.005 ± 0.011
[2]; 6700 nM
  level (log10): -0.0175 ± 0.022
[2]; 20000 nM
  level (log10): -0.004 ± 0.0099
[3]; 6700 nM
  level (log10): -0.0005 ± 0.0078
[3]; 20000 nM
  level (log10): -0.001 ± 0.013
[3]; 60000 nM
  level (log10): 0.0005 ± 0.0078
[4]; 6700 nM
  level (log10): -0.0385 ± 0.021
[4]; 20000 nM
  level (log10): -0.018 ± 0.051
[4]; 60000 nM
  level (log10): 0.049 ± 0.0071
[5]; 6700 nM
  level (log10): -0.002 ± 0.0071
[5]; 20000 nM
  level (log10): -0.0055 ± 0.00071
[5]; 60000 nM
  level (log10): 0.0085 ± 0.022
[6]; 6700 nM
  level (log10): 0.0015 ± 0.0035
[6]; 20000 nM
  level (log10): 0.0095 ± 0.019
[7]
  level (log10): -0.0085 ± 0.0092

## HDF3CGF:Collagen III
[1]; 6700 nM
  level (log10): 0.001 ± 0.024
[1]; 20000 nM
  level (log10): -0.0125 ± 0.029
[2]; 6700 nM
  level (log10): -0.0295 ± 0.049
[2]; 20000 nM
  level (log10): -0.049 ± 0.081
[3]; 6700 nM
  level (log10): -0.002 ± 0.037
[3]; 20000 nM
  level (log10): -0.0115 ± 0.00071
[3]; 60000 nM
  level (log10): -0.0035 ± 0.011
[4]; 6700 nM
  level (log10): -0.005 ± 0.088
[4]; 20000 nM
  level (log10): 0.03 ± 0.054
[4]; 60000 nM
  level (log10): 0.072 ± 0.042
[5]; 6700 nM
  level (log10): -0.0025 ± 0.0078
[5]; 20000 nM
  level (log10): 0.009 ± 0.024
[5]; 60000 nM
  level (log10): 0.039 ± 0.05
[6]; 6700 nM
  level (log10): 0.001 ± 0.038
[6]; 20000 nM
  level (log10): -0.014 ± 0.021
[7]
  level (log10): 0.0135 ± 0.044

## CASM3C:CD106/VCAM-1
[1]; 6700 nM
  level (log10): -0.018 ± 0.0042
[1]; 20000 nM
  level (log10): -0.019 ± 0.02
[2]; 6700 nM
  level (log10): -0.022 ± 0.014
[2]; 20000 nM
  level (log10): -0.0145 ± 0.019
[3]; 6700 nM
  level (log10): 0.0035 ± 0.022
[3]; 20000 nM
  level (log10): -0.012 ± 0.037
[3]; 60000 nM
  level (log10): 0.026 ± 0.033
[4]; 6700 nM
  level (log10): 0.031 ± 0.057
[4]; 20000 nM
  level (log10): 0.041 ± 0.014
[4]; 60000 nM
  level (log10): 0.04 ± 0.0085
[5]; 6700 nM
  level (log10): -0.0155 ± 0.013
[5]; 20000 nM
  level (log10): -0.03 ± 0.0071
[5]; 60000 nM
  level (log10): 0.012 ± 0.02
[6]; 6700 nM
  level (log10): 0.0105 ± 0.018
[6]; 20000 nM
  level (log10): 0.017 ± 0.0099
[7]
  level (log10): -0.012 ± 0.016

## KF3CT:CCL2/MCP-1
[1]; 6700 nM
  level (log10): -0.0165 ± 0.016
[1]; 20000 nM
  level (log10): 0.009 ± 0.042
[2]; 6700 nM
  level (log10): -0.004 ± 0.03
[2]; 20000 nM
  level (log10): 0.022 ± 0.04
[3]; 6700 nM
  level (log10): -0.0245 ± 0.0021
[3]; 20000 nM
  level (log10): -0.0045 ± 0.026
[3]; 60000 nM
  level (log10): 0.012 ± 0.013
[4]; 6700 nM
  level (log10): -0.0705 ± 0.0092
[4]; 20000 nM
  level (log10): -0.032 ± 0.0099
[4]; 60000 nM
  level (log10): -0.0115 ± 0.023
[5]; 6700 nM
  level (log10): 0.0035 ± 0.011
[5]; 20000 nM
  level (log10): -0.0165 ± 0.0092
[5]; 60000 nM
  level (log10): -0.011 ± 0.013
[6]; 6700 nM
  level (log10): -0.015 ± 0.038
[6]; 20000 nM
  level (log10): -0.016 ± 0.041
[7]
  level (log10): -0.0105 ± 0.005

## MyoF:SRB
[1]; 6700 nM
  level (log10): 0.0165 ± 0.013
[1]; 20000 nM
  level (log10): 0.006 ± 0.0057
[2]; 6700 nM
  level (log10): 0.008 ± 0.0085
[2]; 20000 nM
  level (log10): 0.005 ± 0.0042
[3]; 6700 nM
  level (log10): -0.003
[3]; 20000 nM
  level (log10): -0.007 ± 0.0042
[3]; 60000 nM
  level (log10): -0.0035 ± 0.0035
[4]; 6700 nM
  level (log10): 0.0005 ± 0.013
[4]; 20000 nM
  level (log10): 0.002 ± 0.0085
[4]; 60000 nM
  level (log10): 0.0055 ± 0.0021
[5]; 6700 nM
  level (log10): -0.005 ± 0.0042
[5]; 20000 nM
  level (log10): -0.004 ± 0.0028
[5]; 60000 nM
  level (log10): 0 ± 0.0014
[6]; 6700 nM
  level (log10): -0.002 ± 0.0085
[6]; 20000 nM
  level (log10): 0 ± 0.0028
[7]
  level (log10): 0.006 ± 0.0071

## MyoF:Collagen I
[1]; 6700 nM
  level (log10): -0.0145 ± 0.016
[1]; 20000 nM
  level (log10): -0.005 ± 0.0028
[2]; 6700 nM
  level (log10): 0 ± 0.0099
[2]; 20000 nM
  level (log10): -0.017 ± 0.017
[3]; 6700 nM
  level (log10): 0.01 ± 0.0014
[3]; 20000 nM
  level (log10): -0.005 ± 0.016
[3]; 60000 nM
  level (log10): 0.0155 ± 0.023
[4]; 6700 nM
  level (log10): -0.0215 ± 0.022
[4]; 20000 nM
  level (log10): -0.0115 ± 0.018
[4]; 60000 nM
  level (log10): -0.0115 ± 0.0092
[5]; 6700 nM
  level (log10): 0.006 ± 0.02
[5]; 20000 nM
  level (log10): 0 ± 0.016
[5]; 60000 nM
  level (log10): 0.0165 ± 0.013
[6]; 6700 nM
  level (log10): -0.0015 ± 0.0064
[6]; 20000 nM
  level (log10): -0.003 ± 0.011
[7]
  level (log10): -0.0125 ± 0.011

## CASM3C:IL-6
[1]; 6700 nM
  level (log10): -0.033 ± 0.024
[1]; 20000 nM
  level (log10): 0.003 ± 0.055
[2]; 6700 nM
  level (log10): -0.02 ± 0.0057
[2]; 20000 nM
  level (log10): 0.007 ± 0.027
[3]; 6700 nM
  level (log10): -0.029 ± 0.0071
[3]; 20000 nM
  level (log10): -0.017 ± 0.0028
[3]; 60000 nM
  level (log10): 0.0175 ± 0.043
[4]; 6700 nM
  level (log10): -0.0125 ± 0.0035
[4]; 20000 nM
  level (log10): 0.0045 ± 0.023
[4]; 60000 nM
  level (log10): 0.0225 ± 0.021
[5]; 6700 nM
  level (log10): -0.001 ± 0.038
[5]; 20000 nM
  level (log10): 0 ± 0.044
[5]; 60000 nM
  level (log10): 0.0245 ± 0.0078
[6]; 6700 nM
  level (log10): 0.0015 ± 0.018
[6]; 20000 nM
  level (log10): -0.004 ± 0.0099
[7]
  level (log10): 0.0015 ± 0.012

Source: the supplement of paper PMC10331698
